Assays:
[1] = system: Primary hippocampal neurons; assay: Synaptophysin synapse assay in primary hippocampal neurons treated with oligomeric Aβ; assay type: cell-based, mouse; details: 5 μM oligomeric Aβ, 500 nM, 4 h
Experimental: Primary hippocampal neurons were isolated from E17.5 mouse embryos (C57BL/6J, The Jackson Laboratory, Bar Harbor, ME, USA) as previously described and cultured with Neurobasal medium containing 2% B27, 1X GlutaMax, 10 mM HEPES and 1% PenStrep. Cells were maintained in a humified incubator at 37 °C and 5% CO2. For TUNEL assay, cells were left in culture for 16–18 days and then treated with 5 μM oligomeric Aβ along with ENT-A013 (500 nM, every 24 h) for 48 h. Cells were then fixed with 4% PFA and labelled with TUNEL (F. Hoffmann–La Roche Ltd., Basel, Switzerland, cat# 11684795910) following the manufacturer’s protocol. Subsequently, cells were immunostained against Tuj1 and imaged with confocal microscopy. For synaptic plasticity assay, cells were left in culture for 16–18 days and then treated with 5 μM oligomeric Aβ along with ENT-A013 (500 nM) for 4 h. Cells were then fixed with 4% PFA and immunostained against Tuj1 and Synaptophysin (1:1000, PA1-1043, Invitrogen, Waltham, MA, USA), anti-mouse Alexa fluor 488 (1:1000, A-11029, Invitrogen, Waltham, MA, USA) and anti-rabbit Alexa fluor 546 (1:1000, A10040, Invitrogen, Waltham, MA, USA). Images were acquired using confocal microscopy and the total area of synaptophysin positive puncta was measured and normalized to Tuj1 total area.

γ-secretase = γ-secretase activity / APP processing in U2OS APP-C99-tGFP cells; assay type: cell-based; details: 6 h
Experimental: PC12 and HEK293T cells were obtained from LGC Promochem GmbH (Teddington, UK) and cultured under the conditions specified by the manufacturer. NIH3T3 cells were stably transfected with human TrkB plasmid. PC12 cells were grown in DMEM medium (11965084, Gibco, Grand Island, NY, USA) containing 10% Horse Serum (16050122, Gibco, Grand Island, NY, USA), 5% Fetal Bovine Serum (10270106, Gibco, Grand Island, NY, USA), 100 units/mL Penicillin and 0.1 mg/mL Streptomycin (15140122, Gibco, Grand Island, NY, USA) at 5% CO2 and 37 °C. Cells were used between passages 5–20. HEK293T and NIH3T3 cells were grown in the same medium as PC12 cells supplemented with 10% Fetal Bovine Serum and lacking Horse Serum. For transient transfection of HEK293T cells, lipofectamine was used and cells were transfected with human p75^NTR and Traf6 plasmids. To determine the intracellular activity of endogenous secretases, we tagged (tGFP) a truncated mutant (Tm) of APP containing the original amino acids sequence from M516 to N773. This Tm conserves the secretases cleavage sites, clathrin binding site, tau protein binding site, collagen binding site and some glycosylation sites critical for protein localization and intracellular trafficking. The cDNA of the TmAPP gene was amplified by PCR and subcloned into pturbo-GFP vector. The construction was transfected into U2OS cells (ATCC Cat Number HTB-96) using Lipofectamine LTX (Thermo Fisher Scientific, Waltham, MA, USA). After 48 h, individual cells were plated in MTP96 plates using F.SIGHT (CYTENA GmbH, Freiburg, Germany), and cultured in complete medium containing 250 μg/mL G418 for selection. The selection medium was changed every two to three days. The cells were allowed to grow for 3 to 4 weeks, after which clones were isolated for further analysis. Resistant clones were checked by RT-PCR and epifluorescence microscopy.
The Alzheimer’s Disease (AD) phenotype is partly attributed to the toxic effects caused by oligmeric Aβ, which results in reduced neuronal trophic support, caused by deregulation of neurotrophic signaling. It is therefore reasonable that a small molecule that can selectively activate TrkA signaling and promote neuronal survival could alleviate the detrimental effects caused by toxic Aβ oligomers, especially during the early phases of the disease or modulate APP misprocessing and therefore reduce the production of the toxic Aβ. The U2OS stably expressing APP-C99-tGFP cell line was used in order to monitor γ-secretase activity, the process responsible for Aβ production from APP. The assay achieves this by measuring the levels of fluorescent APP-C99 construct produced by β-secretase activity. When γ-secretase is active, the construct is cleaved, leading to Aβ production. […] Therefore, higher fluorescence levels correspond to decreased γ-secretase activity and Aβ aggregate formation by extension. […] In addition, in order to investigate whether ENT-A013 can protect cells against Aβ-induced toxicity we isolated neurons from the hippocampus of E17.5 mouse embryos, a brain area that is heavily affected in AD. Neurons were left in culture for 16–18 DIV and then were treated with oligomeric Aβ and ENT-A013 for 48 h. Subsequently, cells were fixed and cell death was assessed using TUNEL assay.
(A,B) Primary hippocampal neurons were treated for 48 h with oligomeric Aβ in the presence of ENT-A013 and TUNEL assay was used to quantify cell death. Representative images from 3 independent experiments. Data are shown as ±SEM. One-way ANOVA, Tukey’s Test correction: ** p < 0.01; *** p < 0.001. (C) Aggregate formation on untreated cells, treated with DAPT inhibitor of γ-secretase or with compound ENT-A013. […] Aggregate formation was quantified with a BD Pathway 855 High-Content Bioimager and Attonvision software.

Akt and Erk1/2 = Akt and Erk1/2 phosphorylation in NIH-3T3 cells transfected with TrkB or TrkC; assay type: cell-based; details: 500 nM, 30′
Experimental: cells were stably transfected with TrkB and treated with ENT-A013 (500nM) or BDNF (500ng/ml) for 30’ and then subjected to Western Blot against phosphorylated TrkB and […]
either TrkB or Akt by ENT-A013. (C) NIH-3T3 cells were stably transfected with TrkC and (1 picture or pasted object on this page, not shown here) […]
treated with ENT-A013 (500nM) or Neurotrophin-3 (100ng/ml) for 30’ and then subjected to Western Blot against phosphorylated TrkC, Akt and Erk1/2. […]
phosphorylated any of those. (D) CellTox assay was performed in NIH-3T3-TrkB cells that were starved from serum and treated with ENT-A013 or BDNF for 24hrs. Quantification (E) […]
negative control (Serum Free).
Supplementary Figure S3: Primary DRG neurons were cultured in the presence of ENT-A013 (500nM, supplemented every 48hrs) and a neutralizing antibody against NGF for 5 days and then neurite length was measured by immunostaining against Tuj1 .
Supplementary Figure S4: Primary hippocampal neurons at 14-16 DIV were treated with oligomeric Aβ and in the presence of ENT-A013 (500nM, supplemented every 24hrs) for 48hrs and then were subjected to Western Blot against phosphorylated JNK. A representative blot […]

CC12CCC(O)CC1=CCC1C2CCC2(C)C1CCC21CC1C=CBr [ENT-A013, (2′R,3S,17S)-2′-(2-Bromovinyl)-5-Androstene-17,1′-Cyclopropan-3-ol]
synapse number (synaptophysin area normalized to Tuj1 area) [1]: 1.08 ± 0.08 % of control FC | increase in APP spot levels compared to DAPT (γ-secretase; 10 μM): 166.3% | increase in APP spot levels compared to DAPT (γ-secretase; 30 μM): 246.4% | increase in APP spot levels compared to DAPT (γ-secretase; 100 μM): 243.9% | increase in APP spot levels compared to DAPT (γ-secretase; 300 μM): 239.9% | IC50 (γ-secretase; Homo sapiens, U2OS, 100 nM to 300 μM, read-out: IC50 (γ-secretase activity, aggregate formation)): 93 µM | Akt phosphorylation (in words) (Akt and Erk1/2; NIH-3T3 TrkB cells): no significant difference in the phosphorylation | Akt and Erk1/2 phosphorylation (in words) (Akt and Erk1/2; NIH-3T3 TrkC cells): failed to
